Assay results: the supplement of paper PMC10307832

Key:
Assay in all cases: relative viability (nuclei count vs DMSO), 5 days (fraction); higher = more cells survive
201T = test system: 201T
Outline: (§1)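 Relative viability is defined as nuclei in treated wells over nuclei in vehicle wells. Duplicate plates were run and medians reported. Lung cancer cell lines in 1536-well plates were dosed by pin tool one day after seeding, with one drug or with a fixed anchor-drug dose plus five library-drug doses (not always all listed) in √10 steps, and nuclei were counted after 5 days.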

EPLC-272H = test system: EPLC-272H
Outline: as §1

H3255 = test system: H3255
Outline: as §1

LCLC-103H = test system: LCLC-103H
Outline: as §1

LOU-NH91 = test system: LOU-NH91
Outline: as §1

NCI-H1355 = test system: NCI-H1355
Outline: as §1

NCI-H1651 = test system: NCI-H1651
Outline: as §1

NCI-H1666 = test system: NCI-H1666
Outline: as §1

NCI-H1734 = test system: NCI-H1734
Outline: as §1

NCI-H1792 = test system: NCI-H1792
Outline: as §1

NCI-H1793 = test system: NCI-H1793
Outline: as §1

NCI-H1915 = test system: NCI-H1915
Outline: as §1

NCI-H1944 = test system: NCI-H1944
Outline: as §1

NCI-H1975 = test system: NCI-H1975
Outline: as §1

NCI-H2023 = test system: NCI-H2023
Outline: as §1

NCI-H2342 = test system: NCI-H2342
Outline: as §1

NCI-H2405 = test system: NCI-H2405
Outline: as §1

NCI-H441 = test system: NCI-H441
Outline: as §1

NCI-H647 = test system: NCI-H647
Outline: as §1

RERF-LC-KJ = test system: RERF-LC-KJ
Outline: as §1

SK-LU-1 = test system: SK-LU-1
Outline: as §1

UMC-11 = test system: UMC-11
Outline: as §1

SMILES: COCC1(CO)C(=O)C2CCN1CC2 (centres undefined) [PRIMA-1MET] + N=C(N)NC(=N)NCCc1ccccc1 [Phenformin] (partner 250 µM)
- relative viability (201T; first compound 0.2 µM): 0.444
- relative viability (201T; first compound 0.6325 µM): 0.452
- relative viability (201T; first compound 2 µM): 0.397
- relative viability (201T; first compound 6.325 µM): 0.452
- relative viability (201T; first compound 20 µM): 0.464
- relative viability (EPLC-272H; first compound 2 µM): 0.286
- relative viability (EPLC-272H; first compound 6.325 µM): 0.314
- relative viability (EPLC-272H; first compound 20 µM): 0.085
- relative viability (H3255; first compound 0.2 µM): 0.458
- relative viability (H3255; first compound 0.6325 µM): 0.335
- relative viability (H3255; first compound 2 µM): 0.36
- relative viability (H3255; first compound 6.325 µM): 0.374
- relative viability (H3255; first compound 20 µM): 0.293
- relative viability (LCLC-103H; first compound 0.2 µM): 0.354
- relative viability (LCLC-103H; first compound 0.6325 µM): 0.283
- relative viability (LCLC-103H; first compound 2 µM): 0.315
- relative viability (LCLC-103H; first compound 6.325 µM): 0.355
- relative viability (LCLC-103H; first compound 20 µM): 0.362
- relative viability (LOU-NH91; first compound 0.2 µM): 0.724
- relative viability (LOU-NH91; first compound 0.6325 µM): 0.667
- relative viability (LOU-NH91; first compound 2 µM): 0.554
- relative viability (LOU-NH91; first compound 6.325 µM): 0.712
- relative viability (LOU-NH91; first compound 20 µM): 0.392
- relative viability (NCI-H1355; first compound 0.2 µM): 0.443
- relative viability (NCI-H1355; first compound 0.6325 µM): 0.409
- relative viability (NCI-H1355; first compound 2 µM): 0.384
- relative viability (NCI-H1355; first compound 6.325 µM): 0.46
- relative viability (NCI-H1355; first compound 20 µM): 0.421
- relative viability (NCI-H1651; first compound 0.2 µM): 0.297
- relative viability (NCI-H1651; first compound 0.6325 µM): 0.244
- relative viability (NCI-H1651; first compound 2 µM): 0.293
- relative viability (NCI-H1651; first compound 6.325 µM): 0.377
- relative viability (NCI-H1651; first compound 20 µM): 0.339
- relative viability (NCI-H1666; first compound 0.2 µM): 0.558
- relative viability (NCI-H1666; first compound 0.6325 µM): 0.548
- relative viability (NCI-H1666; first compound 2 µM): 0.555
- relative viability (NCI-H1666; first compound 6.325 µM): 0.634
- relative viability (NCI-H1666; first compound 20 µM): 0.564
- relative viability (NCI-H1734; first compound 0.2 µM): 0.385
- relative viability (NCI-H1734; first compound 0.6325 µM): 0.328
- relative viability (NCI-H1734; first compound 2 µM): 0.324
- relative viability (NCI-H1734; first compound 6.325 µM): 0.361
- relative viability (NCI-H1734; first compound 20 µM): 0.058
- relative viability (NCI-H1792; first compound 0.2 µM): 0.352
- relative viability (NCI-H1792; first compound 0.6325 µM): 0.272
- relative viability (NCI-H1792; first compound 6.325 µM): 0.238
- relative viability (NCI-H1792; first compound 20 µM): 0.319
- relative viability (NCI-H1793; first compound 0.2 µM): 0.465
- relative viability (NCI-H1793; first compound 0.6325 µM): 0.32
- relative viability (NCI-H1793; first compound 6.325 µM): 0.444
- relative viability (NCI-H1793; first compound 20 µM): 0.326
- relative viability (NCI-H1915; first compound 0.2 µM): 0.44
- relative viability (NCI-H1915; first compound 0.6325 µM): 0.345
- relative viability (NCI-H1915; first compound 6.325 µM): 0.399
- relative viability (NCI-H1915; first compound 20 µM): 0.353
- relative viability (NCI-H1944; first compound 0.2 µM): 0.215
- relative viability (NCI-H1944; first compound 0.6325 µM): 0.189
- relative viability (NCI-H1944; first compound 2 µM): 0.155
- relative viability (NCI-H1944; first compound 6.325 µM): 0.201
- relative viability (NCI-H1944; first compound 20 µM): 0.214
- relative viability (NCI-H1975; first compound 0.2 µM): 0.41
- relative viability (NCI-H1975; first compound 0.6325 µM): 0.4
- relative viability (NCI-H1975; first compound 2 µM): 0.381
- relative viability (NCI-H1975; first compound 6.325 µM): 0.42
- relative viability (NCI-H1975; first compound 20 µM): 0.194
- relative viability (NCI-H2023; first compound 0.2 µM): 0.453
- relative viability (NCI-H2023; first compound 0.6325 µM): 0.447
- relative viability (NCI-H2023; first compound 2 µM): 0.398
- relative viability (NCI-H2023; first compound 6.325 µM): 0.405
- relative viability (NCI-H2023; first compound 20 µM): 0.284
- relative viability (NCI-H2342; first compound 0.2 µM): 0.58
- relative viability (NCI-H2342; first compound 0.6325 µM): 0.667
- relative viability (NCI-H2342; first compound 2 µM): 0.462
- relative viability (NCI-H2342; first compound 6.325 µM): 0.608
- relative viability (NCI-H2342; first compound 20 µM): 0.543
- relative viability (NCI-H2405; first compound 0.2 µM): 0.296
- relative viability (NCI-H2405; first compound 0.6325 µM): 0.401
- relative viability (NCI-H2405; first compound 6.325 µM): 0.288
- relative viability (NCI-H2405; first compound 20 µM): 0.0656
- relative viability (NCI-H441; first compound 0.2 µM): 0.872
- relative viability (NCI-H441; first compound 0.6325 µM): 0.762
- relative viability (NCI-H441; first compound 2 µM): 0.838
- relative viability (NCI-H441; first compound 6.325 µM): 0.657
- relative viability (NCI-H441; first compound 20 µM): 0.183
- relative viability (NCI-H647; first compound 0.2 µM): 0.405
- relative viability (NCI-H647; first compound 0.6325 µM): 0.546
- relative viability (NCI-H647; first compound 2 µM): 0.453
- relative viability (NCI-H647; first compound 6.325 µM): 0.514
- relative viability (NCI-H647; first compound 20 µM): 0.0596
- relative viability (RERF-LC-KJ; first compound 0.2 µM): 0.493
- relative viability (RERF-LC-KJ; first compound 0.6325 µM): 0.432
- relative viability (RERF-LC-KJ; first compound 2 µM): 0.449
- relative viability (RERF-LC-KJ; first compound 6.325 µM): 0.52
- relative viability (RERF-LC-KJ; first compound 20 µM): 0.427
- relative viability (SK-LU-1; first compound 0.2 µM): 0.545
- relative viability (SK-LU-1; first compound 0.6325 µM): 0.559
- relative viability (SK-LU-1; first compound 2 µM): 0.326
- relative viability (SK-LU-1; first compound 6.325 µM): 0.606
- relative viability (SK-LU-1; first compound 20 µM): 0.0941
- relative viability (UMC-11; first compound 0.2 µM): 0.348
- relative viability (UMC-11; first compound 0.6325 µM): 0.31
- relative viability (UMC-11; first compound 2 µM): 0.264
- relative viability (UMC-11; first compound 6.325 µM): 0.343
- relative viability (UMC-11; first compound 20 µM): 0.254
